Measured values reported in patent publication US20120053239A1, “TREATMENT FOR INTESTINAL GAS, BLOATING, MICROSCOPIC COLITIS, INFLAMMATORY BOWEL DISEASE AND TRAVELER'S DIARRHEA USING COLLOIDAL BISMUTH SUBCITRATE” (priority 2006, published 2012).

Legend:
[1] = Inventor's clinical experience: CBS in patients with severe flatus passage and gastrointestinal discomfort after nonabsorbable carbohydrates; assay type: in vivo, human; settings: six patients; CBS 125 mg, 1 or 2 capsules per day or twice a day for one to two days
Method: (§1) The inventor has specific clinical experience with the use of CBS. Six patients who had episodic both severe flatus passage and gastrointestinal discomfort after the consumption of large quantities of nonabsorbable carbohydrates were treated with CBS obtained from a compounding pharmacy. […] A single dose of CBS 125 mg was administered to a dog with excessive and bothersome gas following a large meal including table food.

[2] = Single dose of CBS in a dog with excessive gas after a large meal; assay type: in vivo; settings: single dose of CBS 125 mg
Method: as §1

[3] = CBS in one patient with symptomatic microscopic colitis; assay type: in vivo, human; settings: CBS 600 mg three times daily for one month
[4] = cited from earlier work
[5] = 20 clinical studies, more than 5000 patients; cited from earlier work

Compound | acute symptoms of excess of gas passage [1] | toxic effects [1] | flatus after administration [2] | symptoms of microscopic colitis [3] | safety of use in nonulcer dyspepsia ([4]; 480 mg of CBS daily for 8 weeks) | serum bismuth levels after ingestion ([4]; up to 480 mg per day of CBS for more than 4 weeks) | side effects compared with ranitidine alone [5]
colloidal bismuth subcitrate [CBS] | completely eliminated all of acute symptoms | No toxic effects were noted | Complete session of flatus | complete resolution of symptoms | safe use | safe serum bismuth levels | 
CNC(=C[N+](=O)[O-])NCCSCc1ccc(CN(C)C)o1.O=C([O-])CC(O)(CC(=O)[O-])C(=O)[O-].[Bi+3] [ranitidine bismuth citrate] |  |  |  |  |  |  | no different than those seen with ranitidine alone
